Patent EP4722228A1, “NEW COMPOUND TARGETING MUSK AND USE THEREOF” (The University of Tokyo, priority 2023, dated 2024)
Numbered stars: 1 amine (or outer) side, 2 acyl side, 3 side chain; on linkers, the order of the positions; unused ones are H or OH. Bridge positions count the residues as written; N and C are the ends. Square brackets hold non-standard residues; d marks the D form. Peptide text beside a SMILES is read from it. I, II: the chains in the order shown. X1 = O=C(CCN1C(=O)CC([*:1])C1=O)NCCOCCOCCOCCOCCOCCOCCOCCOCCOCCOCCOCCNC(=O)CCN1C(=O)CC([*:2])C1=O; X2 = O=C(CCN1C(=O)CC([*:1])C1=O)NCCCOCCOCCOCCCNC(=O)CCN1C(=O)CC([*:2])C1=O

Each molecule was assayed against T1, human MuSK (Homo sapiens, UniProt O15146) (assay: SPR binding activity test to human MuSK (Biacore)). Details: human MuSK, peptide homodimers.
T1 construct: DNA corresponding to the extracellular portion (amino acids 1-493) was amplified by a PCR method; made in house; host or cells: Expi293F cells
T1 sequence (O15146 24-493): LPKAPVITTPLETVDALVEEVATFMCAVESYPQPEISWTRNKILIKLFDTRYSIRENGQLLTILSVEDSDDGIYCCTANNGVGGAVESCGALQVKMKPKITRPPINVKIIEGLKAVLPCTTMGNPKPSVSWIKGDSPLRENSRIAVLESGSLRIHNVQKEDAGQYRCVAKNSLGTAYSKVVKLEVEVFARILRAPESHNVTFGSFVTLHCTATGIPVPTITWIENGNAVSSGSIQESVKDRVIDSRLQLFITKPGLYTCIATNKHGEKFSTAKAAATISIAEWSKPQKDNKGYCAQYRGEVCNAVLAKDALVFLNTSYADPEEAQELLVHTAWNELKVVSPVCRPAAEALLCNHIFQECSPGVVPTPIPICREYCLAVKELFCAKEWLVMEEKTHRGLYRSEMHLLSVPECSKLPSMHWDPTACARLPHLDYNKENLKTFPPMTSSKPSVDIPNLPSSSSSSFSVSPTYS
Description: The human MuSK protein (extracellular portion) was prepared as a recombinant protein as follows. Using a Flexi clone (FXC31275, Promega Corporation) encoding Human MuSK isoform 1 precursor (NCBI Reference Sequence: NP_005583.1) as a template, DNA corresponding to the extracellular portion (amino acids 1-493) was amplified by a PCR method. XhoI and EcoRI restriction enzyme recognition sequences were added to both the 5' and 3' ends of the amplified DNA sequence, and these were used for insertion into the multiple cloning site of a pCAG-Neo hIgG1-Fc plasmid (Fujifilm Wako Pure Chemical Corporation). This plasmid (pCAG-Neo hMuSK-Fc) enables expression of a chimeric protein of the secretory human MuSK extracellular portion and human IgG1 Fc (hMuSK-Fc; molecular weight of approximately 200 kDa) in animal cells. In practice, ExpiFectamine 293 reagent (Invitrogen) was used to transfect the pCAG-Neo hMuSK-Fc plasmid into Expi293F cells (Invitrogen), and shaking culture was carried out (for 6 days) in an incubator containing 8% CO2. Next, the culture supernatant was collected, centrifuged, and sterilized by filtration through a 0.22 µm filter. The obtained culture supernatant was subjected to Protein G purification, and finally, a purified hMuSK-Fc sample with 99.96% purity (AKTA-FPLC analysis) was obtained.
The strength of binding between MuSK and the cyclic peptides was evaluated by quantitatively measuring the binding kinetics (binding affinity (dissociation constant) KD) of the cyclic peptides to MuSK immobilized on a sensor chip via an Fc tag, using surface plasmon resonance (SPR).
According to the standard immobilization protocol provided by the manufacturer, Fc-tagged human/mouse/rat MuSK was immobilized on a Protein G chip or a Protein A chip (Cytiva). A running buffer for the monomer/dimer peptides contained 0.010 M phosphate, 0.14 M NaCl, 0.0027 M KCl, 0.05% (v/v) Tween 20, and 0.1% (v/v) DMSO. A running buffer for the monomer/dimer U-bodies contained 0.010 M phosphate, 0.14 M NaCl, 0.0027 M KCl, and 0.05% (v/v) Tween 20. A series of concentrations of each monomer peptide, dimer peptide, monomer U-body, and dimer U-body was injected as analytes. A 1:1 binding fitting analysis was applied using Biacore evaluation software, and ka, kd, and KD values were determined.
Fc-tagged human MuSK was prepared according to the procedure described in Example 1(1). In addition, Fc-tagged mouse MuSK was used by expressing a nucleotide sequence encoding the Fc-tagged mouse MuSK extracellular domain (SEQ ID NO: 34). In addition, Fc-tagged rat MuSK was used as a chimeric protein of rat MuSK and an Fc protein, namely, Recombinant Rat MuSK Fc Chimera Protein (catalog number: 9847-MK-050, R&D Systems).
The affinity of the U-bodies and their complexes obtained as described above for MuSK of human, rat, and mouse was evaluated (binding activity test). The test was carried out according to the procedure described in Example 1(3). However, for the complexes of U-bodies, surface plasmon resonance (SPR) analysis was carried out using a Biacore 8K (Cytiva).
Work on `CC(C)C[C@@H]1NC(=O)[C@H](CC(C)C)NC(=O)[C@H](CO)NC(=O)[C@H](C(C)C)NC(=O)[C@H](C(C)C)NC(=O)[C@H](CC(N)=O)NC(=O)[C@H]([C@@H](C)O)NC(=O)[C@@H]2CCCN2C(=O)[C@H](Cc2ccccc2)NC(=O)[C@@H](Cc2ccc(O)cc2)NC(=O)CSC[C@@H](C(=O)N[C@@H](CSC2CC(=O)N(CCC(=O)NCCCOCCOCCOCCCNC(=O)CCN3C(=O)CC(SC[C@H](NC(=O)[C@@H]4CSCC(=O)N[C@H](Cc5ccc(O)cc5)C(=O)N[C@@H](Cc5ccccc5)C(=O)N5CCC[C@H]5C(=O)N[C@@H]([C@@H](C)O)C(=O)N[C@@H](CC(N)=O)C(=O)N[C@@H](C(C)C)C(=O)N[C@@H](C(C)C)C(=O)N[C@@H](CO)C(=O)N[C@@H](CC(C)C)C(=O)N[C@@H](CC(C)C)C(=O)N[C@@H](CCCCN)C(=O)N[C@@H](CO)C(=O)N4)C(N)=O)C3=O)C2=O)C(N)=O)NC(=O)[C@H](CO)NC(=O)[C@H](CCCCN)NC1=O` (stereo partly shown) [MuSK4 PEG3 dimer] (I: {CH2CO}-[dY]FPTNVVSLLKSCC-NH2 / II: {CH2CO}-[dY]FPTNVVSLLKSCC-NH2; linker I:14-II:14 via X2; thioether I:N-I:13, II:N-II:13) yielded a koff of 0.0044 s⁻¹ and a kon of 650000 M⁻¹ s⁻¹.
“I: Ac-C[dY]LPEFSWPESFVLFLRQRQRQLGRGAE-NH2 / II: Ac-C[dY]LPEFSWPESFVLFLRQRQRQLGRGAE-NH2 (linker I:1-II:1 via X2) [MuSK1Ac PEG3 dimer]” was tested, and the koff was 0.0013 s⁻¹ and the kon was 300000 M⁻¹ s⁻¹.
For `CC(C)C[C@@H]1NC(=O)[C@H](CC(C)C)NC(=O)[C@H](CO)NC(=O)[C@H](C(C)C)NC(=O)[C@H](C(C)C)NC(=O)[C@H](CC(N)=O)NC(=O)[C@H]([C@@H](C)O)NC(=O)[C@@H]2CCCN2C(=O)[C@H](Cc2ccccc2)NC(=O)[C@@H](Cc2ccc(O)cc2)NC(=O)CSC[C@@H](C(=O)N[C@@H](CSC2CC(=O)N(CCC(=O)NCCOCCOCCOCCOCCOCCOCCOCCOCCOCCOCCOCCNC(=O)CCN3C(=O)CC(SC[C@H](NC(=O)[C@@H]4CSCC(=O)N[C@H](Cc5ccc(O)cc5)C(=O)N[C@@H](Cc5ccccc5)C(=O)N5CCC[C@H]5C(=O)N[C@@H]([C@@H](C)O)C(=O)N[C@@H](CC(N)=O)C(=O)N[C@@H](C(C)C)C(=O)N[C@@H](C(C)C)C(=O)N[C@@H](CO)C(=O)N[C@@H](CC(C)C)C(=O)N[C@@H](CC(C)C)C(=O)N[C@@H](CCCCN)C(=O)N[C@@H](CO)C(=O)N4)C(N)=O)C3=O)C2=O)C(N)=O)NC(=O)[C@H](CO)NC(=O)[C@H](CCCCN)NC1=O` (stereo partly shown) [MuSK4 PEG11 dimer] (I: {CH2CO}-[dY]FPTNVVSLLKSCC-NH2 / II: {CH2CO}-[dY]FPTNVVSLLKSCC-NH2; linker I:14-II:14 via X1; thioether I:N-I:13, II:N-II:13), the koff was 0.0056 s⁻¹ and the kon was 810000 M⁻¹ s⁻¹.
With “I: Ac-[dY]LPEFSWPESFVLFLRQRQRQLGRGAEC-NH2 / II: Ac-[dY]LPEFSWPESFVLFLRQRQRQLGRGAEC-NH2 (linker I:28-II:28 via X2) [MuSK1Ac Term PEG3 dimer]” the koff was 0.0012 s⁻¹ and the kon was 200000 M⁻¹ s⁻¹.
“I: Ac-[dY]LPEFSWPESFVLFLRQRQRQLGRGAEC-NH2 / II: Ac-[dY]LPEFSWPESFVLFLRQRQRQLGRGAEC-NH2 (linker I:28-II:28 via X1) [MuSK1Ac Term PEG11 dimer]” gave a koff of 0.0018 s⁻¹ and a kon of 520000 M⁻¹ s⁻¹.

Same assay, conditions: human MuSK, peptide homodimers, read-out: Kd
Work on `CC(C)C[C@@H]1NC(=O)[C@H](CC(C)C)NC(=O)[C@H](CO)NC(=O)[C@H](C(C)C)NC(=O)[C@H](C(C)C)NC(=O)[C@H](CC(N)=O)NC(=O)[C@H]([C@@H](C)O)NC(=O)[C@@H]2CCCN2C(=O)[C@H](Cc2ccccc2)NC(=O)[C@@H](Cc2ccc(O)cc2)NC(=O)CSC[C@@H](C(=O)N[C@@H](CSC2CC(=O)N(CCC(=O)NCCOCCOCCOCCOCCOCCOCCOCCOCCOCCOCCOCCNC(=O)CCN3C(=O)CC(SC[C@H](NC(=O)[C@@H]4CSCC(=O)N[C@H](Cc5ccc(O)cc5)C(=O)N[C@@H](Cc5ccccc5)C(=O)N5CCC[C@H]5C(=O)N[C@@H]([C@@H](C)O)C(=O)N[C@@H](CC(N)=O)C(=O)N[C@@H](C(C)C)C(=O)N[C@@H](C(C)C)C(=O)N[C@@H](CO)C(=O)N[C@@H](CC(C)C)C(=O)N[C@@H](CC(C)C)C(=O)N[C@@H](CCCCN)C(=O)N[C@@H](CO)C(=O)N4)C(N)=O)C3=O)C2=O)C(N)=O)NC(=O)[C@H](CO)NC(=O)[C@H](CCCCN)NC1=O` (stereo partly shown) [MuSK4 PEG11 dimer] (I: {CH2CO}-[dY]FPTNVVSLLKSCC-NH2 / II: {CH2CO}-[dY]FPTNVVSLLKSCC-NH2; linker I:14-II:14 via X1; thioether I:N-I:13, II:N-II:13) yielded a Kd of 6.9 nM.

These molecules were tested on C2C12 myotubes (Agrin-induced AChR clusters) (assay: Agrin-induced AChR clusters in myotubes with tyrosine kinase inhibitors). Details: 10 pM recombinant rat agrin, inhibitor (3 nM) added simultaneously, 20 hours.
Assay type: cell-based, mouse
Text: The mouse myoblast-derived cell line C2C12 (CRL-1772) was purchased from the American Type Culture Collection and used. For subculture, Dulbecco's Modified Eagle Medium (DMEM, high glucose, GlutaMAX supplement, pyruvate; GIBCO) supplemented with 20% fetal bovine serum (FBS; GIBCO) was used. For passage, after the culture medium was removed by suction, adherent cells were washed with phosphate buffered saline (PBS(-)), and HBSS (GIBCO) containing no Mg^2+ and Ca^2+ and containing 0.25% trypsin and 1 mM ethylenediaminetetraacetic acid was added, and the mixture was reacted in a CO2 incubator (37°C, 5% CO2) for 5 minutes. The detached cells were collected and then centrifuged at 1000 rpm at 4°C for 5 minutes (Sorvall X4R Pro, Thermo Fisher Scientific Inc.). After the supernatant was removed by suction, the cells were suspended in fresh culture medium, and 100 µL was seeded into a 96-well plate (BioCoat Collagen I 96-well Black/Clear plate, Corning Inc.) and cultured in a CO2 incubator (37°C, 5% CO2) until reaching confluence, typically within 72 hours. Subsequently, the culture medium was removed and the first medium change was performed with DMEM containing 2% horse serum (GIBCO) for induction of myotube cell differentiation.
A differentiation medium supplemented with an appropriate amount of the homodimer of the cyclic peptide MuSK7 (MuSK7 PEG11 dimer) was prepared in advance in a 96-well plate (Nunclon Δ Surface, 167008, Nunc), and used at 100 µL/well at the time of the second medium change in the process of inducing differentiation into myotubes. 20 hours after addition of the homodimer of the cyclic peptide MuSK7, the medium was removed, the cells were washed with PBS(-), and then fixed at room temperature for 15 minutes with PBS(-) containing 4% formaldehyde. After washing several times with 1% BSA-PBS(-), fluorescently labeled α-bungarotoxin (α-Btx, Alexa Fluor 488 conjugate; Invitrogen) was added to 1% BSA-PBS(-) at a final concentration of 100 nM, and after adding this to the wells, the mixture was allowed to stand at room temperature under a light-shielded condition for 30 minutes. After washing the cells several times with 1% BSA-PBS(-), 100 µL of PBS(-) was added to each well, and fluorescence observation was performed using a fluorescence imaging device. For observation of fluorescently labeled AChR clusters, an EVOS M7000 imaging system (Thermo Fisher Scientific Inc.) was used. During fluorescence image observation, a 10× objective lens was used, and tiff images of an area equivalent to 1 mm^2 were obtained. […] The average number of AChR clusters counted from the three tiff images derived from the same well was calculated and drawn on a graph.
MuSK inhibitor candidates were searched in the KinaseNET database (http://www.kinasenet.ca/) published as an open resource by Kinexus Bioinformatics Corporation (Canada), and three tyrosine kinase inhibitors (AST-487, Foretinib, and Sorafenib) were identified. Next, groups were prepared in which 10 pM recombinant rat agrin protein (550-AG, R&D Systems) derived from C2C12 myotubes was added alone, or in which each tyrosine kinase inhibitor (3 nM) was added simultaneously, and detection and observation of Agrin-induced AChR clusters were performed 20 hours after compound addition (five types, Crizotinib, Linifanib, AST-1306, Dovitinib, and BMS-754807, were used as non-MuSK inhibitory tyrosine kinase inhibitors).
In the case of `C[C@@]1(C(=O)Nc2ccc(F)nc2)CCCN1c1nc(Nc2cc(C3CC3)n[nH]2)c2cccn2n1` [BMS-754807], the “number of AChR clusters” value is reported as “comparable to that in the negative control group (DMSO alone)”.
For `C[C@@H](Oc1cc(-c2cnn(C3CCNCC3)c2)cnc1N)c1c(Cl)ccc(F)c1Cl` [Crizotinib], the “number of AChR clusters” value was “comparable to that in the negative control group (DMSO alone)”.
In the case of `C=CC(=O)Nc1ccc2ncnc(Nc3ccc(OCc4cccc(F)c4)c(Cl)c3)c2c1` [AST-1306], the “number of AChR clusters” value is reported as “comparable to that in the negative control group (DMSO alone)”.

Same assay, conditions: 10 pM recombinant rat agrin, inhibitor (3 nM) added simultaneously, 20 hours; presumed
`CNC(=O)c1cc(Oc2ccc(NC(=O)Nc3ccc(Cl)c(C(F)(F)F)c3)cc2)ccn1` [Sorafenib] was tested, and the MuSK inhibitory effects was “weaker MuSK inhibitory effects compared with AST-487”.
In the case of `COc1cc2c(Oc3ccc(NC(=O)C4(C(=O)Nc5ccc(F)cc5)CC4)cc3F)ccnc2cc1OCCCN1CCOCC1` [Foretinib], the MuSK inhibitory effects is reported as “weaker MuSK inhibitory effects compared with AST-487”.
